# Earlier results in article PMC10386743, “Application of Ligand- and Structure-Based Prediction Models for the Design of Alkylhydrazide-Based HDAC3 Inhibitors as Novel Anti-Cancer Compounds” (Pharmaceuticals, 2023).
# Test system: recombinant human HDAC3
# Conditions: recombinant human HDAC3, Boc-Lys(acetyl)-AMC; supplement Ref. [46]
row,SMILES,pIC50 HDAC3 (HDAC3 experimental pIC50)
1,CCCNNC(=O)c1ccc(CNC(=O)c2cc3cc(Cl)ccc3[nH]2)cc1 [Compound 6],9.18
2,CCCNNC(=O)c1ccc(CNC(=O)c2cc3ccccc3cn2)cc1 [Compound 15],8.83
3,CCCNNC(=O)c1ccc(CNC(=O)c2cc3cc(F)ccc3o2)cc1 [Compound 7],9.08
4,CCCNNC(=O)c1ccc(CNC(=O)c2ccc3ccncc3c2)cc1 [Compound 16],8.81
5,CCCNNC(=O)c1ccc(CNC(=O)c2nc3ccccc3[nH]2)cc1 [Compound 14],8.84
6,CCCNNC(=O)c1ccc(CNC(=O)c2cc3cc(F)ccc3[nH]2)cc1 [Compound 17],8.79
7,CCCNNC(=O)c1ccc(CNC(=O)c2ccc3cnccc3c2)cc1 [Compound 11],8.99
8,CCCNNC(=O)c1ccc(CNC(=O)c2cc3cc(Br)ccc3o2)cc1 [Compound 42],9.21
9,CCCNNC(=O)c1ccc(CNC(=O)c2cc3cc(Cl)ccc3o2)cc1 [Compound 5],9.21
10,CCCNNC(=O)c1ccc(CNC(=O)c2cc3ccccc3o2)cc1 [Compound 3],9.42
11,CCCNNC(=O)c1ccc(CNC(=O)c2cc3cc(Br)ccc3[nH]2)cc1 [Compound 13],8.88
12,CCCNNC(=O)c1ccc(CNC(=O)c2nc3ccccc3s2)cc1 [Compound 12],8.88
13,CCCNNC(=O)c1ccc(CNC(=O)c2cc3cnccc3cn2)cc1 [Compound 19],8.69
14,CCCNNC(=O)c1ccc(CNC(=O)c2ccc3ccccc3n2)cc1 [Compound 9],9.05
15,CCCNNC(=O)c1ccc(CNC(=O)c2cnc3ccccc3c2)cc1 [Compound 18],8.75
16,C#CCOc1ccc2oc(C(=O)NCc3ccc(C(=O)NNCCC)cc3)cc2c1 [Compound 8],9.07
17,CCCNNC(=O)c1ccc(CNC(=O)c2cc3ccccc3[nH]2)cc1 [Compound 4],9.36
18,CCCNNC(=O)c1ccc(CNC(=O)c2cc3cc(O)ccc3o2)cc1 [Compound 40],9.29
19,CCCNNC(=O)c1ccc(CNC(=O)c2cc3cc(OC)ccc3o2)cc1 [Compound 1],9.55
20,CCCNNC(=O)c1ccc(CNC(=O)c2cc3cc(OC)ccc3[nH]2)cc1 [Compound 41],9.24

# Same assay, conditions: recombinant human HDAC3, Boc-Lys(acetyl)-AMC; supplement prints Ref. [48]
row,SMILES,pIC50 HDAC3 (HDAC3 experimental pIC50)
1,CCCNNC(=O)c1ccc(NC(=O)c2ccccc2)cc1 [Compound 46],7.31
2,CCCNNC(=O)c1cccc(CNCCc2c(C)[nH]c3ccccc23)c1 [Compound 36],6.17
3,CCCNNC(=O)c1ccc(CN(Cc2ccccc2)C(=O)OC(C)(C)C)cc1 [Compound 49],7.11
4,CCCNNC(=O)c1ccc(OCc2ccccc2)cc1 [Compound 27],7.61
5,CCCNNC(=O)c1ccc(CNCCc2c(C)[nH]c3ccccc23)cc1 [Compound 26],7.70
6,CCCNNC(=O)c1ccc(NCc2ccccc2)cc1 [Compound 22],8.21
7,CCCNNC(=O)/C=C/c1ccc(CNCCc2c(C)[nH]c3ccccc23)cc1 [Compound 2],9.55
8,COC(=O)CCNNC(=O)/C=C/c1ccc(CNCCc2c(C)[nH]c3ccccc23)cc1 [Compound 34],6.51
9,Cc1[nH]c2ccccc2c1CCNCc1ccc(/C=C/C(=O)NNCCN)cc1 [Compound 59],5.28
10,Cc1[nH]c2ccccc2c1CCNCc1ccc(/C=C/C(=O)NNCCC#N)cc1 [Compound 45],7.46
11,CCCNNC(=O)c1ccc(CNCc2ccccc2)cc1 [Compound 30],7.01
12,CCCNNC(=O)c1ccc(CN(CCc2c(C)[nH]c3ccccc23)C(=O)OC(C)(C)C)cc1 [Compound 43],7.90
13,CCCNNC(=O)c1cccc(CN(CCc2c(C)[nH]c3ccccc23)C(=O)OC(C)(C)C)c1 [Compound 57],5.30
14,CCCNNC(=O)/C=C/c1ccc(CN(CCc2c(C)[nH]c3ccccc23)C(=O)OC(C)(C)C)cc1 [Compound 44],7.78

# Same assay, conditions: recombinant human HDAC3, Boc-Lys(acetyl)-AMC; supplement prints Ref. [50]
row,SMILES,pIC50 HDAC3 (HDAC3 experimental pIC50)
1,CCCCNNC(=O)CCc1ccccc1 [Compound 56],5.72
2,CCCCNNC(=O)c1cccs1 [Compound 38],6.04
3,CCNNC(=O)c1ccc(CNC(=O)c2ccccc2)cc1 [Compound 51],6.73
4,O=C(NCc1ccc(C(=O)NNCC2CCC2)cc1)c1ccccc1 [Compound 50],7.07
5,CCCCNNC(=O)c1ccc(OC)cc1 [Compound 31],6.80
6,CC(C)NNC(=O)c1ccc(CNC(=O)c2ccccc2)cc1 [Compound 61],< 5.00
7,CCCCCCCNNC(=O)c1ccc(CNC(=O)c2ccccc2)cc1 [Compound 35],6.25
8,CCCCNNC(=O)c1ccc(-c2ccccc2)cc1 [Compound 47],7.17
9,CCCCNNC(=O)/C=C/c1ccccc1 [Compound 33],6.53
10,CCCCNNC(=O)c1cc2ccccc2o1 [Compound 54],5.87
11,CCCNNC(=O)c1ccc(CNC(=O)c2ccccc2)cc1 [Compound 20],8.46
12,CCCCCCCCCCNNC(=O)c1ccc(CNC(=O)c2ccccc2)cc1 [Compound 63],< 5.00
13,CCCCNNC(=O)c1ccc2ccccc2c1 [Compound 37],6.05
14,CCCCNNC(=O)c1ccco1 [Compound 58],5.30
15,O=C(NCc1ccc(C(=O)NNCCC(F)(F)F)cc1)c1ccccc1 [Compound 48],7.16
16,CCCCNNC(=O)c1ccc(CNC(=O)c2ccccc2)cc1 [Compound 23],8.07
17,CCCCNNC(=O)c1cccc2ccccc12 [Compound 60],< 5.00
18,CCCCCNNC(=O)c1ccc(CNC(=O)/C=C/c2ccccc2)cc1 [Compound 28],7.49
19,CCCCNNC(=O)c1ccc(CNC(=O)/C=C/c2ccccc2)cc1 [Compound 21],8.44
20,C/C=C/CNNC(=O)c1ccc(CNC(=O)c2ccccc2)cc1 [Compound 55],5.81
21,O=C(NCc1ccc(C(=O)NNCC2CC2)cc1)c1ccccc1 [Compound 29],7.40
22,CCNNC(=O)c1ccc(CNC(=O)/C=C/c2ccccc2)cc1 [Compound 25],7.71
23,CCCCCCCCNNC(=O)c1ccc(CNC(=O)c2ccccc2)cc1 [Compound 53],5.96
24,CC/C=N/NC(=O)c1ccc(CNC(=O)c2ccccc2)cc1 [Compound 62],< 5.00
25,CCCCCNNC(=O)c1ccc(CNC(=O)c2ccccc2)cc1 [Compound 24],7.73
26,CCCNNC(=O)c1ccc(CNC(=O)/C=C/c2ccccc2)cc1 [Compound 10],9.02
27,CCCCCCNNC(=O)c1ccc(CNC(=O)c2ccccc2)cc1 [Compound 32],6.73
28,CCCCNNC(=O)c1ccc(Oc2ccccc2)cc1 [Compound 52],6.51
29,CCCCNNC(=O)c1cccnc1 [Compound 39],5.81

# Test system: HDAC3
# Conditions: newly designed compounds
row,SMILES,pIC50 HDAC3 (HDAC3 experimental pIC50)
1,CCCNNC(=O)c1ccc(-c2ccc(CNC(C)=O)cc2)cc1 [Compound 64],7.04
2,CCCCCCNNC(=O)c1cnc(NCc2cccc3ccccc23)nc1 [Compound 81],<5.00
3,CCCCCCNNC(=O)c1cnc(N2CCN(Cc3c[nH]c4ccccc34)CC2)nc1 [Compound 86],7.00
4,CCCCCCNNC(=O)c1ccc(-c2ccc(CNC(C)=O)cc2)cc1 [Compound 67],<5.00
5,CCCNNC(=O)c1cnc(NCc2ccccc2)nc1 [Compound 72],7.37
6,CCCCCCNNC(=O)c1cnc(N2CCN(CCc3c[nH]c4ccccc34)CC2)nc1 [Compound 88],6.00
7,CCCNNC(=O)c1cnc(NCc2ccc(Cl)cc2)nc1 [Compound 77],7.43
8,CCCNNC(=O)c1cnc(NCc2cc(Cl)ccc2Cl)nc1 [Compound 78],7.24
9,CCCNNC(=O)c1cnc(NCc2ccccc2Cl)nc1 [Compound 76],7.22
10,CCCNNC(=O)c1cnc(N2CCN(Cc3c[nH]c4ccccc34)CC2)nc1 [Compound 85],7.52
11,CCCNNC(=O)c1cnc(NCc2ccc(CNC(C)=O)cc2)nc1 [Compound 80],6.96
